Measurements published in patent US20220332758A1, “PEPTIDE-BASED COMPOSITIONS AND METHODS FOR TREATING ALZHEIMER'S DISEASE” (Board of Regents, The Universityof Texas System, priority 2019, published 2022).
Entries after “also recorded” stand apart in the source; their conditions may differ.

Key:
[1] = target: T1, latent human 20S proteasome (Homo sapiens, UniProt P25787+P60900); assay: Chymotrypsin-like (ChT-L) activity of purified latent human 20S proteasome, Suc-LLVY-AMC substrate; format: biochemical; details: for activation of ChT-L activity of 20S proteasome (in words): in vitro, latent human 20S
T1 construct: purified from erythrocytes; purchased Boston Biochem, Inc. or Enzo Life Sciences, Inc; host or cells: human erythrocytes
Method: Determination of Proteasome Activity. Human housekeeping core (20S) proteasome purified from erythrocytes was purchased from Boston Biochem, Inc. (Cambridge, Mass.) or from Enzo Life Sciences, Inc. (Farmingdale, N.Y.). […] The stock proteasome was diluted to 0.2 mg/mL working solution in “dilution buffer” (50 mM Tris/HCl, pH 8, 20% glycerol). The following model peptide substrates, releasing fluorescent 7-amino-4-methylcoumarin (AMC) reporter group after cleavage, were used: succinyl-LeuLeuValTyr-AMC (SEQ ID NO: 14) (for the ChT-L peptidase; SucLLVY-AMC; Bachem Bioscience Inc., Philadelphia, Pa.), butoxycarbonyl-LeuArgArg-AMC (T-L; Bachem Bioscience Inc., Philadelphia, Pa.) and carbobenzoxy-LeuLeuGlu-AMC (PGPH; Enzo Life Sciences Inc., Farmingdale, N.Y.). The substrates were used at concentration of 50 μM (ChT-L) or 100 μM (T-L, PGPH). Free AMC (Sigma-Aldrich, St. Louis, Mo.) was used as the standard. […] The TAT peptides, Rpt peptides (except Rpt6) and the peptide substrates were dissolved in anhydrous dimethylsulfoxide (DMSO; Sigma-Aldrich, St. Louis, Mo.) and such stock solutions were stored at −20° C. The total concentration of DMSO in final reaction mixtures never exceeded 3% (vol/vol). The Trp (tryptophan)-containing Rpt6 peptide was dissolved in ultrapure water and stored at −20° C., protected from light. The reaction was carried out in 96-well plates, in 100 μL of reaction mixture that consisted of 45 mM Tris/HCl, pH 8, 100 mM KCl, 1 mM EDTA (reaction buffer) and a fluorogenic peptide substrate, to which 200 ng (nearly […]) of proteasome were added. […] The proteasome was preincubated with a substrate for 10 min at room temperature, then 1 μL of DMSO or a desired concentration of a TAT peptide in 1 μL of DMSO were added. After mixing, the plate was transferred to a Fluoroskan Ascent plate reader (Thermo Fisher Scientific Inc., Waltham, Mass.) for 1 h (37° C.), with fluorescence readouts once per minute. To test the competition with Rpt derived peptides, the Rpt peptide (1 μM) was added before the TAT peptide to the reaction mixture. The reaction rates were calculated from a linear segment of kinetic curves constructed from measurements in 1-min intervals. Reaction rates were calculated using a linear fit performed with the Slope Analyser and Enzyme Kinetics applications launched within Origin Pro 2019 (OriginLab Corporation, Northampton, Mass.). […] The data are presented as mean±SD from at least three independent experiments.
Statistical Analysis. Experiments were performed at least in three independent replicates. The results are presented as a mean±SD. A two-tailed t-test was applied to compare the means. The comparisons were allowing for unequal variances with a Welch correction. Abundance of proteasome conformers was compared with the chi squared test and two-sample proportion test. A significance level was set at 0.05. Statistical analysis was performed using statistical procedures offered by OriginPro 2019 (OriginLabs, Northampton, Mass.). Reaction rates were calculated from a smoothed linear segment of kinetic traces using OriginPro 2019. Response curves (activity vs. compound concentration) were fitted with a nonlinear fitting application of OriginPro 2019. The AC50 and maximum activation fold was calculated based on the equations implemented to fit the response curves.

[2] = target: T2, latent 20S core proteasome, PGPH peptidase (Homo sapiens, UniProt P25787+P60900); assay: Post glutamyl peptide hydrolyzing (PGPH) peptidase activity of the core proteasome; format: biochemical
T2 construct: purified from erythrocytes; purchased Boston Biochem, Inc. or Enzo Life Sciences, Inc; host or cells: human erythrocytes
Method: Determination of Proteasome Activity. Human housekeeping core (20S) proteasome purified from erythrocytes was purchased from Boston Biochem, Inc. (Cambridge, Mass.) or from Enzo Life Sciences, Inc. (Farmingdale, N.Y.). Multiple batches of the proteasomes were used and performed reproducibly. The stock proteasome was diluted to 0.2 mg/mL working solution in “dilution buffer” (50 mM Tris/HCl, pH 8, 20% glycerol). The following model peptide substrates, releasing fluorescent 7-amino-4-methylcoumarin (AMC) reporter group after cleavage, were used: succinyl-LeuLeuValTyr-AMC (SEQ ID NO: 14) (for the ChT-L peptidase; SucLLVY-AMC; Bachem Bioscience Inc., Philadelphia, Pa.), butoxycarbonyl-LeuArgArg-AMC (T-L; Bachem Bioscience Inc., Philadelphia, Pa.) and carbobenzoxy-LeuLeuGlu-AMC (PGPH; Enzo Life Sciences Inc., Farmingdale, N.Y.). […] After mixing, the plate was transferred to a Fluoroskan Ascent plate reader (Thermo Fisher Scientific Inc., Waltham, Mass.) for 1 h (37° C.), with fluorescence readouts once per minute. […] The reaction rates were calculated from a linear segment of kinetic curves constructed from measurements in 1-min intervals. Reaction rates were calculated using a linear fit performed with the Slope Analyser and Enzyme Kinetics applications launched within Origin Pro 2019 (OriginLab Corporation, Northampton, Mass.). […]

activation of ChT-L activity of 20S proteasome (in words) ([1]; listed as Tat1-Den) | activation of ChT-L activity of 20S proteasome (in words) ([1]; listed as Tat-Den) | Structure (SMILES) | AC50 ([1]; 20S proteasome AC50, Table 1, ChT-L activity, Suc-LLVY-MCA, purified human housekeeping 20S) [nM] | AC50 ([1]; AC50 [nM] ± SE, Table 3, purified 20S proteasome in Tris/HCl buffer pH 8, ChT-L model substrate) [nM] | activation of ChT-L activity of 20S proteasome (in words) [1] | effect on PGPH activity [2]
– | – | N=C(N)NCCCC(NC(=O)CN)C(=O)NC(CCCCN)C(=O)NC(CCCCN)C(=O)NC(CCCNC(=N)N)C(=O)NC(CCCNC(=N)N)C(=O)NC(CCC(N)=O)C(=O)N1Cc2ccccc2C[C@H]1C(=O)N1C(C(=O)NC(CCCNC(N)N)C(=O)N2CCCC2C(=O)NC(CO)C(=O)O)CC2CCCCC21 (some centres unmarked) [(5), GRKKRRQ-TOD-RPS] | 221 | 220 ± 89 | strongly enhance | weak inhibitory effects; also recorded: did not seem to significantly affect
one of the best proteasome activators | strongly enhance | NCCCCC(N)C(=O)NC(CCCCN)C(=O)NC(CCCCN)C(=O)Nc1cc(NC(=O)C(CCCCN)NC(=O)C(CCCCN)NC(=O)C(N)CCCCN)cc(C(=O)NC(CCCCN)C(=O)NC(CCCCN)C(=O)NC(CCCCN)C(=O)O)c1 (centres unmarked) [(8)] | – | – | one of the highest activation folds for the 20S core and one of the lowest AC50; also recorded: highest fold of activation potential and a low AC50 | weak inhibitory effects; also recorded: did not seem to significantly affect
